The source made the active and inactive calls. No cut-off for these calls is given here.

One data set has as its system MCF7. In words: Cytotoxicity against human MCF7 cells after 72 hrs by MTT assay. Format: functional, cell-based. To be noted: MCF7, 72 h.
Data set [1] is described as follows: Cytotoxicity against human JIMT1 cells after 72 hrs by MTT assay. Format: functional, cell-based. To be noted: JIMT-1, 72 h.
For data set [2], the system named is JIMT-1. The experiment in a line: Reduction in aldehyde dehydrogenase levels in human JIMT1 cells at 5 to 10 uM by ALDEFLUOR assay. Format: functional, cell-based.
In data set [3] the test system is JIMT-1. In words: Reduction in aldehyde dehydrogenase levels in human JIMT1 cells at 0.52 uM by ALDEFLUOR assay (reference value: 30 to 60%). Set-up: scale not given: the % may be the effect or the level left. Format: functional.
Data set [4] can be described thus: Ionophoric activity in large unilamellar POPC/POPG (3:1) vesicles assessed as relaxation of potassium coupled-proton gradient by measuring decrease in internal pH at 1 pM after 300 secs by ratiometric pH reporter pyranin based spectroscopic analysis. It is filed as ADME. To be noted: 5 min.
A short description of data set [5]: Ionophoric activity in large unilamellar POPC/POPG (3:1) vesicles assessed as relaxation of potassium coupled-proton gradient by measuring decrease in internal pH at 100 pM after 300 secs by ratiometric pH reporter pyranin based spectroscopic analysis. It is filed as ADME. To be noted: 5 min, 0.0001 µM.

Regarding `CC[C@@H](C(=O)[C@@H](C)[C@@H](O)[C@H](C)[C@@H]1O[C@@H]([C@@H](CC)C(=O)N(C)O)CC[C@@H]1C)[C@H]1O[C@]2(C=C[C@@H](O)[C@]3(CC[C@@](C)([C@H]4CC[C@](O)(CC)[C@H](C)O4)O3)O2)[C@H](C)C[C@@H]1C`, the IC50 (with MCF7; in data set [1]) was over 20 µM throughout. Besides, in the data set on JIMT-1 [2], the result was inactive.
As to `CC[C@@H](C(=O)[C@@H](C)[C@@H](O)[C@H](C)[C@@H]1O[C@@H]([C@@H](CC)C(=O)O)CC[C@@H]1C)[C@H]1O[C@]2(C=C[C@@H](O)[C@]3(CC[C@@](C)([C@H]4CC[C@](O)(CC)[C@H](C)O4)O3)O2)[C@H](C)C[C@@H]1C` [SALINOMYCIN], the results for the IC50 (in the data set on MCF7; in data set [1]) were 0.59 µM and 0.52 µM, respectively. Besides, the Activity in the data set with JIMT-1 [3] was 60%; in data set [4] it was “Active”.
In the case of `CC[C@@H](C(=O)[C@@H](C)[C@@H](O)[C@H](C)[C@@H]1O[C@@H]([C@@H](CC)C(=O)NO)CC[C@@H]1C)[C@H]1O[C@]2(C=C[C@@H](O)[C@]3(CC[C@@](C)([C@H]4CC[C@](O)(CC)[C@H](C)O4)O3)O2)[C@H](C)C[C@@H]1C`, the half-maximal inhibitory concentration (IC50) in the data set on MCF7 was 10 µM; in data set [1] it was 6.7 µM. For the same molecule, the outcome in data set [5] was Active. In addition, the outcome with JIMT-1 [2] was inactive.
On to `CC[C@@H](C(=O)[C@@H](C)[C@@H](O)[C@H](C)[C@@H]1O[C@@H]([C@@H](CC)C(=O)NOC)CC[C@@H]1C)[C@H]1O[C@]2(C=C[C@@H](O)[C@]3(CC[C@@](C)([C@H]4CC[C@](O)(CC)[C@H](C)O4)O3)O2)[C@H](C)C[C@@H]1C`, for which the IC50 in the data set with MCF7 stood at 16.3 µM; in data set [1] it was 17.3 µM. Also, the result in the data set with JIMT-1 [2] was inactive.
In the case of `CC[C@@H](C(=O)[C@@H](C)[C@@H](O)[C@H](C)[C@@H]1O[C@@H]([C@@H](CC)C(=O)N(C)OC)CC[C@@H]1C)[C@H]1O[C@]2(C=C[C@@H](O)[C@]3(CC[C@@](C)([C@H]4CC[C@](O)(CC)[C@H](C)O4)O3)O2)[C@H](C)C[C@@H]1C`, the half-maximal inhibitory concentration (IC50) in the data set with MCF7 came out at 9.3 µM; in data set [1], 10.1 µM. Further, in the data set with JIMT-1 [2], the outcome was inactive.
